According to PubChem BioAssay AID2060607 (Molecular Pharmacology Branch, DTP, NCI, 2025):
Several values for one entry are separate records, joined by “and”; a condition that tells them apart may be missing. Equal values may be shown once.

Tested on: 876862-298-R-J1-PDC complex spheroids, viability % test/control
Experiment: Anticancer human tumor 876862-298-R-J1-PDC patient-derived endometrial carcinoma cell line growth inhibition [CLK]
Conditions: for viability, T/C: stronger effect = lower value
From the text: A high-throughput screen of multi-cell type tumor spheroids was designed to identify active combinations of […] and targeted small molecules. Complex spheroids include a stromal component modeled by human endothelial cells (HUVEC) and fibroblasts modeled by human mesenchymal stem cells (MSCs). The concentration ranges selected for each drug and investigational agent were based upon clinically achievable concentrations if the clinical Cmax of the agent was known.
Compounds. The drugs and investigational agents: cirtuvivint (SM08502; NSC835563), CC-671 (NSC850746), vemurafenib (NSC761431), tapotoclax (NSC804041), sotorasib (NSC818433), adagrasib (NSC831453), MRTX-1133 (NSC836407), BAY2416964 (NSC825713), copanlisib (NSC816437), inavolisib (NSC800729), abemaciclib (NSC768073), osimertinib (NSC779217), entinostat (NSC756642), eltanexor (KPT-8602, NSC794443), venetoclax (NSC766270), ceralasertib (NSC777638), bortezomib (NSC756655), olaparib (NSC753686), talazoparib (NSC767125), alisertib (NSC759677), peposertib (NSC802822), gemcitabine (NSC613327), 5-fluorouracil (NSC19893), SN-38 (NSC673596), oxaliplatin (NSC266046), paclitaxel (NSC125973), and doxorubicin (NSC123127), were obtained from the National Cancer Institute (NCI) Developmental Therapeutics Program Chemical Repository. The FDA-approved anticancer drug set is available from the Developmental Therapeutics Program at https://dtp.cancer.gov/organization/dscb/obtaining/available plates.htm. […] The stock solutions were prepared in dimethyl sulfoxide (DMSO, Sigma-Aldrich, St. Louis, MO, cat. D2650), except for the platinum complexes which were prepared in saline (Quality Biological, Gaithersburg, MD, cat. 114-055-101), at 800-fold the tested concentration and stored at -70 degrees C prior to their use. All drugs and investigational agents were tested over a range starting from a high concentration at or near the clinical Cmax and decreasing in half-log increments. If the clinical Cmax for an agent had not been determined, the highest concentration tested was 10 microM.
Cell Culture. All cells were maintained in an incubator at 37 degrees C and 5% CO2 with 95% humidity. The PDC lines were cultured according to standard operating procedures established by the NCI PDMR. Briefly, all PDCs were thawed and cultured in Matrigel-coated flasks prepared with a working solution of 1X Ham's F-12 nutrient mix, without supplementation (Invitrogen, Waltham, MA, cat. 11765054), 100 U/mL penicillin-streptomycin (Invitrogen, cat. 15140122), and 2.5% Matrigel (Corning Inc., Corning, NY, cat. 354248) for the first three passages. The 947758-054-R-J2-PDC line was cultured in 6B/Colon 1A media, which includes advanced DMEM/F-12 (Thermo Fisher Scientific, cat. 12634028), 10 mM HEPES (Thermo Fisher Scientific, cat. 15630080), 1X GlutaMAX supplement (Thermo Fisher Scientific, cat. 35050061), 0.1 mg/mL primocin (InvivoGen, cat. ant-pm-2), 10% defined fetal bovine serum, heat inactivated (HyClone Laboratories Inc., cat. SH30070.03HI), 1.25 mM N-Acetyl-L-cysteine (Sigma-Aldrich, cat. A9165), 10 mM nicotinamide (Sigma-Aldrich, cat. N0636), 1X B-27 supplement (Thermo Fisher Scientific, cat. 17504044), 1X N-2 supplement (Thermo Fisher Scientific, cat. 17502048), and 10 microM Y-27632 dihydrochloride (Tocris Bioscience, cat. 1254). The 876862-298-R-J1-PDC was cultured in 6E media, which includes all 6B/Colon 1A media components plus 50% L-WRN conditioned media (ATCC, cat. CRL-3276), 50 ng/mL recombinant human EGF recombinant protein (hEGF; Thermo Fisher Scientific, cat. PHG0311), 10 ng/mL recombinant human fibroblast growth factor 10 (hGFG-10; PeproTech, cat. 100-26), 1 ng/mL recombinant human fibroblast growth factor 2 (hFGF-2; PeproTech, cat. 100-18B), and 1 µM prostaglandin E2 (PGE2; Tocris, cat. 2296). The 227483-062-R1-J1-PDC line was cultured in Panc media, containing all 6E components except hFGF-2, with the addition of 500 nM SB-431542 (Selleckchem, cat. S1067) and 10 nM gastrin (Tocris, cat. 3006). […]

[1] = curve of first compound, second compound 0.0316 µM
[2] = curve of first compound, second compound 0.1 µM
[3] = curve of first compound, second compound 0.316 µM
[4] = curve of first compound, second compound 1 µM
[5] = curve of first compound, second compound 3.16 µM
[6] = curve of first compound, second compound 10 µM
[7] = second compound 0.0316 µM, first compound 0.0316 µM
[8] = second compound 0.0316 µM, first compound 0.1 µM
[9] = second compound 0.0316 µM, first compound 0.316 µM
[10] = second compound 0.0316 µM, first compound 1 µM
[11] = second compound 0.0316 µM, first compound 3.16 µM
[12] = second compound 0.0316 µM, first compound 10 µM
[13] = second compound 0.1 µM, first compound 0.0316 µM
[14] = second compound 0.1 µM, first compound 0.1 µM
[15] = second compound 0.1 µM, first compound 0.316 µM
[16] = second compound 0.1 µM, first compound 1 µM
[17] = second compound 0.1 µM, first compound 3.16 µM
[18] = second compound 0.1 µM, first compound 10 µM
[19] = second compound 0.316 µM, first compound 0.0316 µM
[20] = second compound 0.316 µM, first compound 0.1 µM
[21] = second compound 0.316 µM, first compound 0.316 µM
[22] = second compound 0.316 µM, first compound 1 µM
[23] = second compound 0.316 µM, first compound 3.16 µM
[24] = second compound 0.316 µM, first compound 10 µM
[25] = second compound 1 µM, first compound 0.0316 µM
[26] = second compound 1 µM, first compound 0.1 µM
[27] = second compound 1 µM, first compound 0.316 µM
[28] = second compound 1 µM, first compound 1 µM
[29] = second compound 1 µM, first compound 3.16 µM
[30] = second compound 1 µM, first compound 10 µM
[31] = second compound 3.16 µM, first compound 0.0316 µM
[32] = second compound 3.16 µM, first compound 0.1 µM
[33] = second compound 3.16 µM, first compound 0.316 µM
[34] = second compound 3.16 µM, first compound 1 µM
[35] = second compound 3.16 µM, first compound 3.16 µM
[36] = second compound 3.16 µM, first compound 10 µM
[37] = second compound 10 µM, first compound 0.0316 µM
[38] = second compound 10 µM, first compound 0.1 µM
[39] = second compound 10 µM, first compound 0.316 µM
[40] = second compound 10 µM, first compound 1 µM
[41] = second compound 10 µM, first compound 3.16 µM
[42] = second compound 10 µM, first compound 10 µM
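Also: spheroids exposed to drugs for 7 days before readout.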
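For viability, T/C in this document: 100% = DMSO vehicle control wells.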

Structure (SMILES): O=c1[nH]cc(F)c(=O)[nH]1 + CNC(=O)c1ccc(Nc2nc(OC3CCCC3)c3c(-c4ccc5nc(C)oc5c4)c[nH]c3n2)c(OC)c1
- IC50 [1]: > 10000 nM
- IC50 [2]: < 31.6 nM
- IC50 [3]: < 31.6 nM
- IC50 [4]: < 31.6 nM
- IC50 [5]: < 31.6 nM
- IC50 [6]: < 31.6 nM
- viability, T/C [7]: 68.7%
- viability, T/C [8]: 84.1%
- viability, T/C [9]: 81.4%
- viability, T/C [10]: 94.6%
- viability, T/C [11]: 57.9%
- viability, T/C [12]: 49.6%
- viability, T/C [13]: 46.7%
- viability, T/C [14]: 49.5%
- viability, T/C [15]: 49.2%
- viability, T/C [16]: 45%
- viability, T/C [17]: 45.3%
- viability, T/C [18]: 41.6%
- viability, T/C [19]: 49.7%
- viability, T/C [20]: 42%
- viability, T/C [21]: 41.9%
- viability, T/C [22]: 40.5%
- viability, T/C [23]: 40.1%
- viability, T/C [24]: 38.5%
- viability, T/C [25]: 31.5%
- viability, T/C [26]: 32.2%
- viability, T/C [27]: 32.5%
- viability, T/C [28]: 31.1%
- viability, T/C [29]: 24%
- viability, T/C [30]: 24.7%
- viability, T/C [31]: 25%
- viability, T/C [32]: 25.9%
- viability, T/C [33]: 22.9%
- viability, T/C [34]: 19.9%
- viability, T/C [35]: 18%
- viability, T/C [36]: 14.2%
- viability, T/C [37]: 20.3%
- viability, T/C [38]: 21.2%
- viability, T/C [39]: 20.1%
- viability, T/C [40]: 21.6%
- viability, T/C [41]: 17.6%
- viability, T/C [42]: 13.6%

Structure (SMILES): CCc1c2c(nc3ccc(O)cc13)-c1cc3c(c(=O)n1C2)COC(=O)[C@]3(O)CC
- viability, T/C (compound 0.00316 µM): 48% and 36.5%
- viability, T/C (compound 0.01 µM): 9.1% and 7.37%
- viability, T/C (compound 0.0316 µM): 6.83% and 6.05%
- viability, T/C (compound 0.1 µM): 5.12% and 5.99%
- viability, T/C (compound 0.316 µM): 3.64% and 4.64%
- viability, T/C (compound 1 µM): 2.58% and 4.7%
- IC50 (curve of compound): < 3.16 nM

Structure (SMILES): CC1COCCN1c1cc(C2(S(C)(=N)=O)CC2)nc(-c2ccnc3[nH]ccc23)n1 (configuration not stated) + CN1CCN(c2cc(C(=O)Nc3cc4cc(-c5cnn(C)c5)ccc4cn3)ccn2)CC1
- IC50 [1]: 2100 nM
- IC50 [2]: < 31.6 nM
- IC50 [3]: < 31.6 nM
- IC50 [4]: < 31.6 nM
- IC50 [5]: < 31.6 nM
- IC50 [6]: < 31.6 nM
- viability, T/C [7]: 89.1%
- viability, T/C [8]: 87.5%
- viability, T/C [9]: 76.5%
- viability, T/C [10]: 62.1%
- viability, T/C [11]: 43.6%
- viability, T/C [12]: 17.9%
- viability, T/C [13]: 45.1%
- viability, T/C [14]: 51.9%
- viability, T/C [15]: 38.9%
- viability, T/C [16]: 33.6%
- viability, T/C [17]: 18.4%
- viability, T/C [18]: 7.47%
- viability, T/C [19]: 2.43%
- viability, T/C [20]: 2.03%
- viability, T/C [21]: 2.19%
- viability, T/C [22]: 2.32%
- viability, T/C [23]: 2.12%
- viability, T/C [24]: 1.33%
- viability, T/C [25]: 0.64%
- viability, T/C [26]: 0.83%
- viability, T/C [27]: 0.8%
- viability, T/C [28]: 0.51%
- viability, T/C [29]: 0.47%
- viability, T/C [30]: 0.27%
- viability, T/C [31]: 0.98%
- viability, T/C [32]: 1.82%
- viability, T/C [33]: 0.92%
- viability, T/C [34]: 0.81%
- viability, T/C [35]: 0.61%
- viability, T/C [36]: 0.4%
- viability, T/C [37]: 0.94%
- viability, T/C [38]: 0.66%
- viability, T/C [39]: 1.4%
- viability, T/C [40]: 0.63%
- viability, T/C [41]: 0.59%
- viability, T/C [42]: 0.74%

Structure (SMILES): COc1cccc2c1C(=O)c1c(O)c3c(c(O)c1C2=O)CC(O)(C(=O)CO)CC3OC1CC(N)C(O)C(C)O1 (configuration not stated)
- viability, T/C (compound 0.0316 µM): 41.8% and 33.2%
- viability, T/C (compound 0.1 µM): 16.9% and 13.5%
- viability, T/C (compound 0.316 µM): 7.66% and 6.87%
- viability, T/C (compound 1 µM): 7.07% and 7.16%
- viability, T/C (compound 3.16 µM): 0.89% and 0.78%
- viability, T/C (compound 10 µM): 4.03% and 4%
- IC50 (curve of compound): < 31.6 nM

Structure (SMILES): CCN1CCN(Cc2ccc(Nc3ncc(F)c(-c4cc(F)c5nc(C)n(C(C)C)c5c4)n3)nc2)CC1
- viability, T/C (compound 0.00316 µM): 91.2% and 109%
- viability, T/C (compound 0.01 µM): 86.9% and 101%
- viability, T/C (compound 0.0316 µM): 86.5% and 84.8%
- viability, T/C (compound 0.1 µM): 68.3% and 76.1%
- viability, T/C (compound 0.316 µM): 52.7% and 61.5%
- viability, T/C (compound 1 µM): 46.3% and 48.5%
- IC50 (curve of compound): 483 nM and 891 nM

Structure (SMILES): NC(=O)C(=Cn1cnc(-c2cc(C(F)(F)F)cc(C(F)(F)F)c2)n1)c1cncnc1
- viability, T/C (compound 0.00949 µM): 78% and 78.2%
- viability, T/C (compound 0.03 µM): 54.1% and 60.3%
- viability, T/C (compound 0.0949 µM): 37.5% and 38.2%
- viability, T/C (compound 0.3 µM): 33.6% and 27.7%
- viability, T/C (compound 0.949 µM): 24.4% and 18.7%
- viability, T/C (compound 3 µM): 13.4% and 12.4%
- IC50 (curve of compound): 47.3 nM and 52.2 nM
